Patent US20140031217A1, “HERBICIDAL COMPOSITIONS COMPRISING 4-AMINO-3-CHLORO-5-FLUORO-6-(4-CHLORO-2-FLUORO-3-METHOXYPHENYL)PYRIDINE-2-CARBOXYLIC ACID OR A DERIVATIVE THEREOF AND AUXIN TRANSPORT INHIBITORS” (DOW AGROSCIENCES LLC, priority 2012, published 2014)

Legend:
BRAPP = assay: Postemergence foliar-applied greenhouse weed control, BRAPP; assay type: in vivo, Brachiaria platyphylla (Griseb.) Nash
Excerpt: Seeds or nutlets of the desired test plant species were planted in a soil matrix prepared by mixing a loam or sandy loam soil (e.g., 28.6 percent silt, 18.8 percent clay, and 52.6 percent sand, with a pH of about 5.8 and an organic matter content of about 1.8 percent) and calcareous grit in an 80 to 20 ratio. The soil matrix was contained in plastic pots with a volume of 1 quart and a surface area of 83.6 square centimeters (cm^2). When required to ensure good germination and healthy plants, a fungicide treatment and/or other chemical or physical treatment was applied. The plants were grown for 8-22 days in a greenhouse with an approximate 14 h photoperiod which was maintained at about 29° C. during the day and 26° C. during the night. Nutrients (Peters Excel® 15-5-15 5-Ca 2-Mg and iron chelate) were applied in the irrigation solution as needed and water was added on a regular basis. Supplemental lighting was provided with overhead metal halide 1000-Watt lamps as necessary. The plants were employed for testing when they reached the first through fourth true leaf stage.
Treatments consisted of the acid or esters of 4-amino-3-chloro-5-fluoro-6-(4-chloro-2-fluoro-3-methoxy-phenyl) pyridine-2-carboxylic acid (Compound A), each formulated as an SC (suspension concentrate), and various herbicidal components alone and in combination. Forms of compound A were applied on an acid equivalent basis.
Other herbicidal components were applied on an active ingredient basis and included auxin transport inhibiting (ATI) herbicides chlorflurenol (technical material), chlorflurenol-methyl (technical material), diflufenzopyr (technical material), diflufenzopyr sodium (technical material), flurenol-methyl (technical material) and naptalam (technical material).
Treatment requirements were calculated based upon the rates being tested, the concentration of active ingredient or acid equivalent in the formulation, and a 12 mL application volume at a rate of 187 L/ha.
For treatments comprised of formulated and technical compounds, weighed amounts of the technical materials were placed individually in 25 mL glass vials and dissolved in a volume of 97:3 v/v acetone/DMSO to obtain 12× stock solutions, and measured amounts of the formulated compounds were placed individually in 25 mL glass vials and diluted in a volume of 1.5% (v/v) crop oil concentrate or water to obtain 12× stock solutions. […] Application solutions were prepared by adding an appropriate amount of each stock solution (e.g., 1 mL) and diluted to the appropriate final concentrations with the addition of an appropriate amount of an aqueous mixture of 1.5% (v/v) crop oil concentrate so that the final spray solutions contained 1.25% (v/v) crop oil concentrate. When required, additional water and/or 97:3 v/v acetone/DMSO was added to individual application solutions so that the final acetone and DMSO concentrations of the application solutions being compared were 8.1% and 0.25%, respectively.
All stock solutions and applications solutions were visually inspected for compound compatibility prior to application. Spray solutions were applied to the plant material with an overhead Mandel track sprayer equipped with an 8002E nozzle calibrated to deliver 187 L/ha over an application area of 0.503 m^2 at a spray height of 18 to 20 inches (46 to 50 cm) above average plant canopy height. Control plants were sprayed in the same manner with the solvent blank.
The treated plants and control plants were placed in a greenhouse as described above and watered by sub-irrigation to prevent wash-off of the test compounds. After approximately 3 weeks, the condition of the test plants as compared with that of the untreated plants was determined visually and scored on a scale of 0 to 100 percent where 0 corresponds to no injury or growth inhibition and 100 corresponds to complete kill. […]

ECHOR = assay: In-water applied (paddy) greenhouse weed control, ECHOR; assay type: in vivo, Echinochloa oryzoides (Ard.) Fritsch
Procedure: Weed seeds or nutlets of the desired test plant species were planted in puddled soil (mud) prepared by mixing a shredded, non-sterilized mineral soil (50.5 percent silt, 25.5 percent clay, and 24 percent sand, with a pH of about 7.6 and an organic matter content of about 2.9 percent) and water at a 1:1 volumetric ratio. The prepared mud was dispensed in 365 mL aliquots into 16-ounce (oz.) non-perforated plastic pots with a surface area of 86.59 square centimeters (cm^2) leaving a headspace of 3 centimeters (cm) in each pot. Mud was allowed to dry overnight prior to planting or transplanting. Rice seeds were planted in Sun Gro MetroMix® 306 planting mixture, which typically has a pH of 6.0 to 6.8 and an organic matter content of about 30 percent, in plastic plug trays. Seedlings at the second or third leaf stage of growth were transplanted into 840 mL of mud contained in 32-oz. non-perforated plastic pots with a surface area of 86.59 cm^2 4 days prior to herbicide application. The paddy was created by filling the headspace of the pots with 2.5 to 3 cm of water. When required to ensure good germination and healthy plants, a fungicide treatment and/or other chemical or physical treatment was applied. The plants were grown for 4-22 days in a greenhouse with an approximate 14 h photoperiod which was maintained at about 29′C during the day and 26° C. during the night. Nutrients were added as Osmocote® (19:6:12, N:P:K+minor nutrients) at 2 g per 16-oz. pot and 4 g per 960-mL 32-oz. pot. Water was added on a regular basis to maintain the paddy flood, and supplemental lighting was provided with overhead metal halide 1000-Watt lamps as necessary. The plants were employed for testing when they reached the second or third true leaf stage.
Treatments consisted of the acid or esters of 4-amino-3-chloro-5-fluoro-6-(4-chloro-2-fluoro-3-methoxy-phenyl)pyridine-2-carboxylic acid (compound A) each formulated as an SC and various herbicidal components alone and in combination. Forms of compound A were applied on an acid equivalent basis.
Other herbicidal components were applied on an active ingredient basis and included auxin transport inhibiting (ATI) herbicides chlorflurenol-methyl (technical material), chlorflurenol (technical material), diflufenzopyr (technical material), dilfufenzopyr sodium (technical material), flurenol-methyl (technical material,) and naptalam (technical material).
Treatment requirements for each compound or herbicidal component were calculated based upon the rates being tested, the concentration of active ingredient or acid equivalent in the formulation, an application volume of 2 mL per component per pot, and an application area of 86.59 cm^2 per pot.
For formulated compounds, a measured amount was placed in an individual 100 or 200 mL glass vial and was dissolved in a volume of 1.25% (v/v) Agri-Dex® crop oil concentrate to obtain application solutions.
For technical grade compounds, a weighed amount was placed in an individual 100 to 200 mL glass vial and was dissolved in a volume of acetone to obtain concentrated stock solutions. […] The concentrated stock solutions obtained were diluted with an equivalent volume of an aqueous mixture containing 2.5% (v/v) crop oil concentrate so that the final application solutions contained 1.25% (v/v) crop oil concentrate.
Applications were made by injecting with a pipetter appropriate amounts of the application solutions, individually and sequentially, into the aqueous layer of the paddy. Control plants were treated in the same manner with the solvent blank. Applications were made so that all treated plant material received the same concentrations of acetone and crop oil concentrate.
The treated plants and control plants were placed in a greenhouse as described above and water was added as needed to maintain a paddy flood. […]

SMILES	Visual Weed Control (%) Obs (BRAPP; 21 DAA, 8.75 gae/ha) [%]	Visual Weed Control (%) Obs (ECHOR; 20 DAA, 8.75 gae/ha) [%]	Visual Weed Control (%) Obs (ECHOR; 20 DAA, 17.5 gae/ha) [%]	Visual Weed Control (%) Obs (ECHOR; 20 DAA, 35 gae/ha) [%]	Visual Weed Control (%) Obs (ECHOR; 22 DAA, 8.75 gae/ha) [%]	Visual Weed Control (%) Obs (ECHOR; 22 DAA, 17.5 gae/ha) [%]	Visual Weed Control (%) Obs (ECHOR; 22 DAA, 35 gae/ha) [%]	Visual Weed Control (%) Obs (BRAPP; 21 DAA, 4.38 gae/ha) [%]	Visual Weed Control (%) Obs (BRAPP; 21 DAA, 17.5 gae/ha) [%]	Visual Weed Control (%) Obs (BRAPP; 22 DAA, 8 gae/ha) [%]	Visual Weed Control (%) Obs (BRAPP; 22 DAA, 16 gae/ha) [%]	Visual Weed Control (%) Obs (ECHOR; 19 DAA, 32 gae/ha) [%]	Visual Weed Control (%) Obs (ECHOR; 20 DAA, 4.38 gae/ha) [%]
COc1c(Cl)ccc(-c2nc(C(=O)O)c(Cl)c(N)c2F)c1F [Compound A Acid, 4-amino-3-chloro-6-(4-chloro-2-fluoro-3-methoxyphenyl)-5-fluoropyridine-2-carboxylic acid]	60	10	15	25	0	20	20	–	–	–	–	–	–
COc1c(Cl)ccc(-c2nc(C(=O)OCc3ccccc3)c(Cl)c(N)c2F)c1F [Compound A Benzyl Ester]	75	15	–	–	–	–	–	70	95	35	80	25	10
